The values below are quoted from earlier work in patent US10299493B2, “Dietary supplement compositions with enhanced delivery matrix, gummies, chocolates, atomizers and powders containing same, and methods of making same” (priority 2013, dated 2019).

The conditions of this data set: temperature of 20° C.

Consider `C/C=C/C=C/C(=O)[O-].[K+]` [Potassium sorbate], for which the solubility in water is 58.2%.
